This note sets out measurements from patent US4962097A, “Method of treating bacterial infection with phosphorus containing DHP enzyme inhibitors” (Merck & Co., Inc., priority 1989, dated 1990).

The assay concerns the target T1, renal dehydropeptidase I (Sus scrofa, UniProt P22412).
T1 construct: isolated from hog kidneys; from tissue; host or cells: hog kidney
T1 sequence (P22412 17-409): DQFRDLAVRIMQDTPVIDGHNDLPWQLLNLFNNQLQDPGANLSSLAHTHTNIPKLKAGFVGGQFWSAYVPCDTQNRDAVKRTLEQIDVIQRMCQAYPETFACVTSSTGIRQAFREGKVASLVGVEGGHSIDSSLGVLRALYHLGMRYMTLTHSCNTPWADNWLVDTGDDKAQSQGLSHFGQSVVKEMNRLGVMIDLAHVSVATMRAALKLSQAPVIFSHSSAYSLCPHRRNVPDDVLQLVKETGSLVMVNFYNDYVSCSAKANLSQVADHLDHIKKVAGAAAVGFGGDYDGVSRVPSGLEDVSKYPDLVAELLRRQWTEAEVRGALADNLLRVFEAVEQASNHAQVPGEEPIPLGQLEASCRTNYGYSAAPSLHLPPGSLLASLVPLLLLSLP
The assay can be described thus: in vitro screen: inhibition of hydrolysis of glycyldehydrophenylalanine (GDP) by solubilized renal dipeptidase from hog kidneys (renal dehydropeptidase I inhibition). In kind it is biochemical. The conditions noted are these: GDP 0.05 mM, 50 mM MOPS pH 7.1, 37° C., 275 nm. The protocol:
This measured the ability of compounds to inhibit hydrolysis of glycyldehydrophenylalanine (GDP) by a solubilized preparation of […] isolated from hog kidneys. The procedure is as follows: to a 1 ml system containing 50 mM "MOPS" (3-(N-morpholino)-propanesulfonic acid) buffer, pH 7.1 is added 5 mg of lyophilized enzyme, and the test compound at a final concentration of 0.1 mM. After a five minute incubation at 37° C., GDP is added to a final concentration of 0.05 mM. Incubation is continued for 10 minutes, at 37° C. and hydroylsis of GDP is measured by the change in optical density with time at 275 nm. Inhibition of the enzyme is gauged by comparison to a standard run containing no inhibitor and is expressed as the inhibitor binding constant K. This is the concentration of the inhibitor which achieves 50% inhibition of the enzyme.

Where [1] appears, read: Table II, structure I (saturated).
The mark [2] stands for this setting: Table I, structure II (olefins).

By Ki is commonly meant a dissociation constant, usually derived from enzyme kinetics or from competition with a known ligand. Low values mean a stronger hold on the target, high ones a looser hold on the target. Under setting [1], `CCCCCC(N)P(=O)(O)CC(CC1CCCCC1)C(=O)O` (centres unmarked) [CH3 (CH2)4; (cyclo-C6 H11)CH2; RS; RS, (1-Amino-1-hexyl) 2-carboxy-3-cyclohexyl-1-propyl phosphinic acid] registered a Ki of 9.7 nM. The same measure, in the same setting: as for `N[C@@H](CC1CCCCC1)P(=O)(O)CC(CC1CCCCC1)C(=O)O` (some centres unmarked) [(1-Amino-2-cyclohexylethyl)-2-carboxy-3-cyclohexyl-1-propyl phosphinic acid], the figure is 0.5 nM; as for `CCCCCCC(CP(=O)(O)C(N)CC1CCCCC1)C(=O)O` (centres unmarked) [(cyclo-C6 H11)CH2; CH3 (CH2)5; RS; RS, (1-Amino-2-cyclohexylethyl) 2-carboxy-1-octyl phosphinic acid], 1.6 nM. `CCCCCCC(CP(=O)(O)C(N)CCCCC)C(=O)O` (racemic) [CH3 (CH2)4; CH3 (CH2)5; RS; RS, (1-Amino-1hexyl) 2-carboxy-l-octyl phosphinic acid] had a Ki under setting [1] of 8 nM. Under setting [2], `CCCC/C=C(\CP(=O)(O)C(N)CC(C)C)C(=O)O` (centres unmarked) [(CH3)2 CHCH2; CH3 (CH2)3; RS; Z] registered a Ki of 1.6 nM.

`CCCCCC(N)P(=O)(O)C/C(=C\C1CCCCC1)C(=O)O` (centres unmarked) [CH3 (CH2)4; cyclo-C6 H11; RS; Z, (1-Aminohexyl) 2-carboxy-3-cyclohexyl-2(Z)-propenyl phosphinic acid] yielded a Ki under setting [2] of 0.5 nM.

Molecule “(1(R)-Amino-2-cyclohexylethyl)2-carboxyl-4-methyl-(E & Z)-2-butenyl phosphinic acids (15C & 15D) [(cyclo-C6 H11)CH2; (CH3)2 CH; RS; Z] [listing 1 of 2 here]” returned a Ki under setting [2] of 2.1 nM. `CCCCC(CP(=O)(O)C(N)Cc1ccccc1)C(=O)O` (centres unmarked) [PhCH2; CH3 (CH2)3; RS; RS, 1-Amino-2-phenylethyl-[2-carboxy-1-hexyl]phosphinic acid] had a Ki under setting [1] of 84 nM. For `CCC(N)P(=O)(O)CC(CCc1ccccc1)C(=O)O` (racemic) [CH3 CH2; Ph(CH2)2; RS; RS, 1-Aminopropyl-[2-carboxy-4-phenyl-l-butyl]phosphinic acid], the Ki under setting [1] was 6.8 nM. Compared with the last molecule, the Ki is about 12-fold lower.

Under setting [1], `N[C@@H](CC1CCCCC1)P(=O)(O)CC(CCC1CCCC1)C(=O)O` (some centres unmarked) [(1-Amino-2-cyclohexylethyl) 2-carboxy-4-cyclopentyl-1-butyl phosphinic acid] registered a Ki of 2.7 nM. On to `NC(CC1CCCCC1)P(=O)(O)C/C(=C\C1CCCCC1)C(=O)O` (centres unmarked) [(cyclo-C6 H11)CH2; cyclo-C6 H11; RS; Z, (1-Amino-2-cyclohexylethyl) 2-carboxy-3(Z)-cyclohexyl-2-propenyl phosphinic acid], for which, under setting [2], the Ki is 0.9 nM. `CCCCC(CP(=O)(O)C(N)CC)C(=O)O` (racemic) [CH3 CH2; CH3 (CH2)3; RS; RS, 1-Aminopropyl-[2-carboxy-l-hexyl]phosphinic acid] yielded a Ki under setting [1] of 2.3 nM. As for “(1(R)-Amino-2-cyclohexylethyl)2-carboxyl-4-methyl-(E & Z)-2-butenyl phosphinic acids (15C & 15D) [(cyclo-C6 H11)CH2; (CH3)2 CH; RS; Z] [listing 2 of 2 here]”, under setting [2], the Ki was determined as 21 nM. This lies in the double-digit nanomolar range. On the same count and under the same terms, as for `CCCCC/C=C(\CP(=O)(O)C(N)CCCCC)C(=O)O` (centres unmarked) [CH3 (CH2)4; CH3 (CH2)4; RS; Z, (1-Aminohexyl) 2-carboxy-2(Z)-octenyl phosphinic acid], the figure is 1.4 nM. Under setting [1], `CCCCCC(N)P(=O)(O)CC(CCC1CCCC1)C(=O)O` (racemic) [CH3 (CH2)4; (cyclo-C5 H9)CH2 CH2; RS; RS, (1-Amino-1-hexyl) 2-carboxy-4-cyclopenyl-1-butyl phosphinic acid] yielded a Ki of 7 nM. This lies in the single-digit nanomolar range. Under setting [2], `CCCCC/C=C(\CP(=O)(O)C(N)CC1CCCCC1)C(=O)O` (centres unmarked) [(cyclo-C6 H11)CH2; CH3 (CH2)4; RS; Z, (1-Amino-2-cyclohexylethyl) 2-carboxy-2(Z)-octenyl phosphinic acid] registered a Ki of 3.1 nM. In the case of `CC(C)/C=C(\CP(=O)(O)[C@@H](N)CC1CCCCC1)C(=O)O` [(cyclo-C6 H11)CH2; (CH3)2 CH; R; Z], the inhibition constant Ki under setting [2] was found to be 0.54 nM. Compared with the last molecule, the Ki is about 5.7-fold lower. For `CCCCC(CP(=O)(O)C(N)CC(C)C)C(=O)O` (centres unmarked) [(CH3)2 CHCH2; CH3 (CH2)3; RS; RS, 1-Amino-3-methylbutyl-[2-carboxy-1-hexyl]phosphinic acid], the affinity under setting [1], expressed as Ki, was 2.4 nM. This lies in the single-digit nanomolar range. For `CCCCC/C=C(\CP(=O)(O)C(N)Cc1ccccc1)C(=O)O` (centres unmarked) [PhCH2; CH3 (CH2)4; RS; Z], under setting [2], the Ki stood at 68 nM. In turn, `N[C@@H](CC1CCCCC1)P(=O)(O)CC(CCCc1ccncc1)C(=O)O` (some centres unmarked) [(1-Amino-2-cyclohexylethyl)-2-carboxy-5-(4-pyridyl)-pentyl phosphinic acid] had a Ki under setting [1] of 4 nM. Under setting [2], `N[C@@H](CC1CCCCC1)P(=O)(O)C/C(=C\CC1CCCC1)C(=O)O` [(1(R)-Amino-2-cyclohexylethyl)2-carboxy-4-cyclopentyl-2(Z)-butenyl phosphinic acid] yielded a Ki of 0.86 nM.

As to `CCC(CP(=O)(O)C(N)CC)C(=O)O` (racemic) [CH3 CH2; CH3 CH2; RS; RS, 1-Aminopropyl-[2-carboxy-l-butyl]phosphinic acid], under setting [1], affinity was put at a Ki of 1.3 nM. Under setting [2], `N[C@@H](CC1CCCCC1)P(=O)(O)C/C(=C\C1CCCCC1)C(=O)O` [(cyclo-C6 H11)CH2; cyclo-C6 H11; R; Z, (1(R)-Amino-2-cyclohexylethyl)2-carboxyl-3(Z)-cyclohexyl-2-propenyl phosphinic acid] registered a Ki of 0.52 nM. That is a sub-nanomolar value.
